In the SangsterLogP compilation:

Assay: method code SF, from DOI: 10.1080/00021369.1987.10868331

Question: For CNc1nc(NC(C)C)nc(SC(F)F)n1, which logP is on record?
Answer: 3.27

Question: Which logP does the source give for Nc1nc(N)nc(SC(F)F)n1 here?
Answer: 1.21

Question: Which logP does the source give for CC(C)Nc1nc(NC(C)C)nc(SC(F)F)n1 here?
Answer: 4.25

Question: With CCNc1nc(NC)nc(SC(F)F)n1 as the compound, how does the logP read?
Answer: 2.68

Question: For CCC(C)Nc1nc(NC)nc(SC(F)F)n1 (stereo unspecified), which logP is on record?
Answer: 3.69

Question: Which logP does the source give for CCCNc1nc(NC)nc(SC(F)F)n1 here?
Answer: 3.28

Question: For CCNc1nc(NC(C)C)nc(SC(F)F)n1, which logP is on record?
Answer: 3.7

Question: Which logP does the source give for CCCCNc1nc(NC)nc(SC(F)F)n1 here?
Answer: 3.7

Question: For CCNc1nc(NC(C)CC)nc(SC(F)F)n1 (stereo unspecified), which logP is on record?
Answer: 4.23

Question: Which logP does the source give for CCCCCNc1nc(NC)nc(SC(F)F)n1 here?
Answer: 4.42

Question: For CCCCCCNc1nc(NCC)nc(SC(F)F)n1, which logP is on record?
Answer: 5.53

Question: For CCNc1nc(N)nc(SC(F)F)n1, which logP is on record?
Answer: 2.29

Question: Which logP does the source give for CCCCNc1nc(NC(C)C)nc(SC(F)F)n1 here?
Answer: 4.75

Question: For CNc1nc(NC)nc(SC(F)F)n1, which logP is on record?
Answer: 2.31

Question: For CCNc1nc(NC(C)(C)C)nc(SC(F)F)n1, which logP is on record?
Answer: 4.57

Question: Which logP does the source give for CCCNc1nc(NC(C)C)nc(SC(F)F)n1 here?
Answer: 4.23

Question: Which logP does the source give for CCCNc1nc(NCC)nc(SC(F)F)n1 here?
Answer: 3.8

Question: Which logP does the source give for CNc1nc(N)nc(SC(F)F)n1 here?
Answer: 1.75

Question: With CCCCCCCCNc1nc(NCC)nc(SC(F)F)n1 as the compound, how does the logP read?
Answer: 6.61

Question: Which logP does the source give for CC(C)Nc1nc(NC(C)(C)C)nc(SC(F)F)n1 here?
Answer: 4.7

Question: With CCCCNc1nc(NCC)nc(SC(F)F)n1 as the compound, how does the logP read?
Answer: 4.51

Question: With CNc1nc(NC(C)(C)C)nc(SC(F)F)n1 as the compound, how does the logP read?
Answer: 3.91

Question: With CCC(C)Nc1nc(NC(C)C)nc(SC(F)F)n1 (stereo unspecified) as the compound, how does the logP read?
Answer: 4.55

Question: Which logP does the source give for CCNc1nc(NCC)nc(SC(F)F)n1 here?
Answer: 3.28

Question: For CCCCCNc1nc(NCC)nc(SC(F)F)n1, which logP is on record?
Answer: 4.71

Question: For CCCNc1nc(NCCC)nc(SC(F)F)n1, which logP is on record?
Answer: 4.45
